According to patent publication US8471027B2, “Adamantyl compounds” (Hoffmann-La Roche Inc., priority 2011, dated 2013):

Columns and labels:
[1] = tested on: phospho(Ser63)-c-jun in HK-2 cells; experiment: Cell-based assay for JNK inhibitors: in-cell ELISA of TNFα-stimulated phospho(Ser63)-c-jun in HK-2 cells; settings: Homo sapiens, 10 ng/mL TNFα, 60 min preincubation with compound
Experimental: Cell-Based Assay for JNK Inhibitors
The cell-based assay employed the in-cell ELISA method to determine the ability of compounds to prevent the generation of phospho(Ser63)-c-jun in HK-2 cells (human proximal tubule cells) in response to stimulation with tumor necrosis factor α (TNFα). In brief, for quantification of phospho(Ser63)-c-jun, the cells (in 96-well format) were fixed and permeablized then incubated sequentially with a rabbit anti-phospho-c-jun First Antibody specific for the presence of the phospho-Ser63 epitope and a donkey anti-rabbit IgG Second Antibody linked to horseradish peroxidase (HRP) for colorimetric quantitation of binding. For determination of non-specific binding of the First Antibody, Blank wells were preincubated with a mouse anti-phospho(Ser63)-c-jun Blocking Antibody that prevented specific binding of the First Antibody to the phospho-Ser63 epitope, but which was not recognized by the donkey anti-rabbit IgG Second Antibody. […] Blank wells received no TNFα stimulation or compound. Additional Control wells received TNFα stimulation, but no compound. The signal obtained in this case was considered the value for 0% inhibition (Control value).
Stock cultures of HK-2 cells (ATCC, Manassas, Va.) were grown under a 5% CO2/[…] atmosphere at 37 degrees C. in Keratinocyte-SFM medium (KSFM, Invitrogen, Grand Island, N.Y.) containing 5 μg/L epidermal growth factor and 5 mg/L bovine pituitary extract (both supplied with the medium), additionally supplemented with 10% (v/v) fetal calf serum (FCS; Invitrogen, Grand Island, N.Y.) and 1% (v/v) antibiotic-antimycotic (ABAM: Sigma, St. Louis, Mo.). For assays, cells were seeded in collagen coated 96-well polystyrene plates (BD Biosciences, Franklin Lakes, N.J.) at a density of 40,000 cells/well and cultured for 24 h in the same medium (100 μL/well) followed by a further 16-24 h in 100 μL of similar medium, but without FCS. […] Cells were incubated for a further 30 minutes and then the medium was aspirated and the wells washed with 100 μL/well PBS followed by the addition of 100 μL 3.7% (v/v) Formaldehyde (Fisher Scientific, Fair Lawn, N.J.) in PBS. Plates were then allowed to stand at room temperature for 20 minutes before being washed with 200 μL/well of PBS. (Further steps were performed immediately or the plates were stored at 4 degrees C. and the assay completed the next day.) To each well was added 100 μL 1% (v/v) TritonX-100 (Sigma, St. Louis, Mo.) in PBS followed by 20 minutes standing at room temperature, washing with 200 μL/well PBS, the addition of 100 μL/well of Quenching buffer (1% (v/v) hydrogen peroxide (Sigma, St. Louis, Mo.) and 0.1% (w/v) sodium azide (Fisher Scientific, Fair Lawn, N.J.)) in PBS and a further 20 minutes at room temperature. Plates were then washed twice with 200 μL/well of 0.1% (v/v) Tween-20 (Teknova, Hollister, Calif.) in PBS before addition of 200 μL/well of 2% BSA/0.10% Tween-20 in PBS and a further 1 hour at room temperature. At this time, buffer was removed from Blank wells and replaced with 90 μL/well of mouse anti-phospho-c-jun-Ser63 (BD Bioscience, 558036) diluted 1:4000 in PBS containing 1% BSA/0.1% Tween-20 (Antibody Dilution Buffer). All other wells are replaced with 90 μL/well of rabbit anti-phospho-c-jun-Ser63 (Cell Signaling, 9261) diluted 1:250 in Antibody Dilution Buffer. After a further one hour, rabbit anti-phospho-c-jun-Ser63 is added directly to the solution in the Blank wells resulting in 1:250 dilution of this antibody. Plates were then placed on a slowly rotating platform at 4 degrees C. overnight. Wells were then washed thrice with 200 μL/well PBS/0.1% Tween-20. After addition of the third wash, the plates were placed on a slowly rotating platform for 15 minutes at room temperature. […]

JNK1 = JNK1 (Homo sapiens, UniProt P45983); experiment: In vitro JNK1 Assay (TR-FRET, phosphorylation of GST-c-Jun); assay type: biochemical; settings: 0.2 nM JNK1, 26.7 nM GST-c-Jun, 2 μM ATP
Chain of JNK1 (P45983 whole entry, species assumed, the tested form may be a part): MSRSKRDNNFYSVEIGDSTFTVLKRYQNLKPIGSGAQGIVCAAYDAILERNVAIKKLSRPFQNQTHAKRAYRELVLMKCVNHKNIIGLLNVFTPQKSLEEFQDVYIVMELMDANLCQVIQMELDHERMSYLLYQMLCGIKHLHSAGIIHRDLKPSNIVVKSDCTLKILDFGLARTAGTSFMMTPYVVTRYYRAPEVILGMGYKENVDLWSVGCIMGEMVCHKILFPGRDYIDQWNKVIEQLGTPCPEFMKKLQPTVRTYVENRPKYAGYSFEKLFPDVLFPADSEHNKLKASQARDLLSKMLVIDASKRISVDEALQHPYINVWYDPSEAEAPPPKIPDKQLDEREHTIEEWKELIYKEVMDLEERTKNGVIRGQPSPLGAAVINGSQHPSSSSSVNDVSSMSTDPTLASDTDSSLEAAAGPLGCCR
Experimental: Phosphorylation of GST-c-Jun protein (amino acid residues 1-79) was measured as JNK1 activity. […] The reaction buffer contained 50 mM HEPES, pH 7.0, 10 mM MgCl2, 1 mM DTT, 0.1 mM Na3 VO4 and 0.2 mg/mL BSA. After 30 min. incubation at room temperature, the reaction was terminated by adding buffer containing 8 mM EDTA and a polyclonal anti-phospho-c-Jun antibody (Cell Signaling #9261L), followed by an additional incubation of 30 min. at room temperature. […] Time-resolved Fluorescence Resonance Energy Transfer (TR-FRET) signals were measured 1 hr. later on the EnVision reader (Perkin Elmer). Compound potency was assessed at 10 serially diluted concentrations. Percentage of inhibition at each concentration was determined to generate an IC50 value for each compound.

Row | EC50 [1] [µM] | IC50 (JNK1) [nM] | SMILES
1 | 3.1 | 26 | COC(=O)c1c(Cc2ccc(C(=O)N[C@@H]3[C@@H]4C[C@@H]5C[C@H]3C[C@@](NC(C)=O)(C5)C4)cc2)c(=O)c2cccnc2n1-c1ccccc1 [Compound I-17, rel-3-[4-((1S,2S,3R,5S,7S)-5-Acetylamino-adamantan-2-ylcarbamoyl)-benzyl]-4-oxo-1-phenyl-1,4-dihydro-[1,8]naphthyridine-2-carboxylic acid methyl ester]
2 | 1.8 | 5 | COC(=O)c1c(Cc2ccc(C(=O)N[C@@H]3[C@@H]4C[C@@H]5C[C@H]3C[C@@](NS(=O)(=O)C3CC3)(C5)C4)cc2)c(=O)c2cccnc2n1-c1ccccc1 [Compound I-18, rel-3-[4-((1S,2S,3R,5S,7S)-5-Cyclopropanesulfonylamino-adamantan-2-ylcarbamoyl)-benzyl]-4-oxo-1-phenyl-1,4-dihydro-[1,8]naphthyridine-2-carboxylic acid methyl ester]
3 | 2.1 | 11 | COC(=O)c1c(Cc2ccc(C(=O)N[C@@H]3[C@@H]4C[C@@H]5C[C@H]3C[C@@](NS(C)(=O)=O)(C5)C4)cc2)c(=O)c2cccnc2n1-c1ccccc1 [Compound I-19, rel-3-[4-((1S,2S,3R,5S,7S)-5-Methanesulfonylamino-adamantan-2-ylcarbamoyl)-benzyl]-4-oxo-1-phenyl-1,4-dihydro-[1,8]naphthyridine-2-carboxylic acid methyl ester]
4 | 5.3 | 39 | COC(=O)c1c(Cc2ccc(C(=O)N[C@@H]3[C@@H]4C[C@@H]5C[C@H]3C[C@@](NC(=O)C(C)(C)C)(C5)C4)cc2)c(=O)c2cccnc2n1-c1ccccc1 [Compound I-20, rel-3-{4-[(1S,2S,3R,5S,7S)-5-(2,2-Dimethyl-propionylamino)-adamantan-2-ylcarbamoyl]-benzyl}-4-oxo-1-phenyl-1,4-dihydro-[1,8]naphthyridine-2-carboxylic acid methyl ester]
5 | 4.1 | 22 | COC(=O)c1c(Cc2ccc(C(=O)N[C@@H]3[C@@H]4C[C@@H]5C[C@H]3C[C@@](NC(=O)C(C)(C)O)(C5)C4)cc2)c(=O)c2cccnc2n1-c1ccccc1 [Compound I-22, rel-3-{4-[(1S,2S,3R,5S,7S)-5-(2-Hydroxy-2-methyl-propionylamino)-adamantan-2-ylcarbamoyl]-benzyl}-4-oxo-1-phenyl-1,4-dihydro-[1,8]naphthyridine-2-carboxylic acid methyl ester]
6 | 7.8 | 27 | COC(=O)c1c(Cc2ccc(C(=O)N[C@@H]3[C@@H]4C[C@@H]5C[C@H]3C[C@@](O)(C5)C4)cc2OC)c(=O)c2cccnc2n1-c1ccccc1 [Compound I-23, rel-3-[4-((1S,2S,3R,5S,7S)-5-Hydroxy-adamantan-2-ylcarbamoyl)-2-methoxy-benzyl]-4-oxo-1-phenyl-1,4-dihydro-[1,8]naphthyridine-2-carboxylic acid methyl ester]
7 | 8.6 | 34 | COC(=O)c1c(Cc2ccc(C(=O)N[C@@H]3[C@@H]4C[C@@H]5C[C@H]3C[C@@](O)(C5)C4)cc2F)c(=O)c2cccnc2n1-c1ccccc1 [Compound I-24, rel-3-[2-Fluoro-4-((1S,2S,3R,5S,7S)-5-hydroxy-adamantan-2-ylcarbamoyl)-benzyl]-4-oxo-1-phenyl-1,4-dihydro-[1,8]naphthyridine-2-carboxylic acid methyl ester]

Row | SMILES | EC50 [1] [µM] | IC50 (JNK1) [nM]
8 | COC(=O)c1c(Cc2ccc(C(=O)N[C@@H]3[C@@H]4C[C@@H]5C[C@H]3C[C@@](NC(=O)C(C)(C)OC(C)=O)(C5)C4)cc2)c(=O)c2cccnc2n1-c1ccccc1 [Compound I-21, rel-3-{4-[(1S,2S,3R,5S,7S)-5-(2-Acetoxy-2-methyl-propionylamino)-adamantan-2-ylcarbamoyl]-benzyl}-4-oxo-1-phenyl-1,4-dihydro-[1,8]naphthyridine-2-carboxylic acid methyl ester] | 4.8 | 25
